Values quoted from earlier work as cited in patent publication US20230192588A1, “CANNABIDIOLIC ACID (CBDA) DERIVATIVES AND USES THEREOF” (YISSUM RESEARCH DEVELOPMENT COMPANY OF THE HEBREW …, priority 2020, published 2023).

What was measured:
rat models = conditions: oral ingestion of a low dose (1 mg/kg); two rat models
rats [1] = conditions: compared to CBDA, 5-HT1A receptor-dependent manner
rats [2] = conditions: compared to CBDA, 5-HT1A receptor-dependent manner; remark: listed apart in the source

## C=C(C)[C@@H]1CCC(C)=C[C@H]1c1c(O)cc(CCCCC)c(C(=O)OC)c1O [HU-580, cannabidiolic acid methyl ester]
Rat models
  anti-depressant effect: potent anti-depressant effect
Rats [1]
  potency in suppressing signs of stress-induced anxiety: greater potency than CBDA
Rats [2]
  potency in suppressing signs of both acute and anticipatory nausea: greater potency than CBDA
